The record followed here is PubChem BioAssay AID720587 (Broad Institute, 2013).

A value given as a limit tells only on which side of the number the result lay.

This assay deals with A673 Ewing sarcoma viability, CellTiter-Glo ATP luminescence, 72 h. The assay is described as follows: EWS/Fli1-dependent A673 cell killing, confirmation, CellTiter-Glo luminescence, cherry-pick retest (AID 720587). A general note: ATP-based viability assays read luminescence as a measure of living cells.

Regarding `O=C(CCCN1C(=O)S/C(=C\c2ccccc2)C1=O)NNC(=O)c1ccccc1O`, the AC35 was 18.7 µM.

Turning to `COc1cc2oc3cc(C#Cc4ccc(N)cc4)ccc3c(=O)c2cc1OC`, the AC35 was 17.4 µM.

`Cc1ccccc1NC(=O)C(=Cc1ccc(C(=O)O)cc1)C(=O)Nc1ccccc1C`: the AC35 is 5.97 µM.

For the molecule `O=C1NC(=O)N(c2ccccc2)C(=O)/C1=C\C=C\c1ccccc1`, the AC35 was 4.03 µM.

Turning to `COc1cccc(CN2CCC2(C)C(=O)Nc2cccc3cccnc23)c1F` (centres undefined), the AC35 is 14.3 µM.

On to `Cc1c(N=Cc2cc(Br)cc(Br)c2O)cccc1C(=O)O`, for which the AC35 was 20 µM.

In the case of `CN=c1scc(-c2ccccc2F)n1/N=C/c1ccc(O)c(O)c1O`, the AC35 is 11.6 µM.

Take `COc1ccc(/C=C2\SC(=S)N(CCCC(=O)NNC(=O)c3ccccc3O)C2=O)cc1`: the AC35 is 16.8 µM.

Regarding `CC(=O)OC1CC(OC2C(O)CC(OC3C(O)CC(OC4CCC5(C)C(CCC6C5CCC5(C)C(C7=CC(=O)OC7)CCC65O)C4)OC3C)OC2C)OC(C)C1OC1OC(CO)C(O)C(O)C1O` (centres undefined), the AC35 is 0.105 µM.

On to `Cc1[nH][nH]c(=O)c1C(c1c(C)[nH][nH]c1=O)c1cn(Cc2ccc(Cl)c(Cl)c2)c2ccccc12`, for which the AC35 is 9.8 µM.

As to `COc1ccc(/C=C2\Oc3ccccc3C2=O)cc1`, the AC35 is 22.9 µM.

In the case of `COc1ccc(Cn2cc3c(-c4ccc(F)cc4)nnc-3c3cc(OC)c(OC)cc32)cc1`, the AC35 was 4.86 µM.

Regarding `N#C[C@H]1[C@H](c2ccc(-c3ccccc3F)cc2)[C@@H](CO)N1C(=O)Cc1ccccc1`, the AC35 is 10.2 µM.

For `Cc1ccc(S(=O)(=O)Nc2ccc3c(c2)C(=O)N([C@@H](C)CO)C[C@H](C)[C@@H](CN(C)Cc2ccc(C(F)(F)F)cc2)OCCCC[C@@H](C)O3)cc1`, the AC35 is 13.8 µM.

Consider `Cc1ccc2nc(-c3ccccc3)nn2c1`, for which the AC35 was 13.8 µM.

Consider `Cc1ccc(C(=O)O/N=C(\N)c2ccccn2)cc1`, for which the AC35 is 17.7 µM.

For the molecule `CC(C)c1oc(=O)cc2c1[C@@H](O)[C@H]1OC(=O)[C@@]3(C)CC[C@@H](O)[C@@]2(C)C13` (some centres undefined), the AC35 is 19.3 µM.

Take `N#C[C@H]1N[C@H](CO)[C@H]1c1ccc(C#Cc2ccc(F)cc2)cc1`: the AC35 is 20.2 µM.

Take `C[C@@H]1CN([C@@H](C)CO)C(=O)c2cccc(NS(=O)(=O)c3ccc(F)cc3)c2O[C@@H]1CN(C)Cc1ccc(C(=O)Nc2ccccc2N)cc1`: the AC35 was 8.41 µM.

Consider `C[C@H](CO)N1C[C@H](C)[C@H](CN(C)Cc2ccc(Oc3ccccc3)cc2)Oc2ccc(NC(=O)Cn3cnnn3)cc2CC1=O`, for which the AC35 was 8.16 µM.

Regarding `CC(C)Oc1ccc(Br)cc1C(=O)N/N=C/c1c[nH]c2ccccc12`, the AC35 is 22.6 µM.

For `CO[C@H]1CN(C)C(=O)c2cc(NC(=O)c3ccc(Oc4ccccc4)cc3)ccc2OC[C@H](C)NC[C@@H]1C`, the AC35 is 12.3 µM.

Consider `C[C@]12CC[C@H](O)C[C@H]1CC[C@@H]1[C@@H]2CC[C@]2(C)[C@@H](C3=CC(=O)OC3)CC[C@]12O`, for which the AC35 is 0.62 µM.

In the case of `C=C1C(=O)C=C[C@]2(C)C[C@@H]3OC(=O)[C@](C)(O)[C@H]3C[C@@H]12`, the AC35 is 4.67 µM.

Turning to `CN(C[C@H]1N[C@@H](CO)[C@@H]1c1ccc(C2=CCCC2)cc1)C(=O)c1cccc(F)c1`, the AC35 is 1.83 µM.

With `Cc1cccc(/C=C(\c2nc3ccccc3[nH]2)S(=O)(=O)c2ccccc2)c1`, the AC35 is 5.92 µM.

For the molecule `C[C@H]1CN([C@@H](C)CO)C(=O)Cc2cc(NC(=O)CCCCCC(=O)Nc3ccccc3N)ccc2O[C@H]1CN(C)Cc1ccc(Cl)c(Cl)c1`, the AC35 was 10.2 µM.

On to `C[C@@H]1CN([C@H](C)CO)C(=O)Cc2cc(N(C)C)ccc2O[C@H]1CN(C)Cc1ccc(C(=O)Nc2ccccc2N)cc1`, for which the AC35 was 12.7 µM.

Turning to `COCCOC(=O)N1C(=O)[C@@]2(c3cc(C#CCC(C(=O)OC)C(=O)OC)ccc31)[C@H](c1ccccc1OCCO)N1[C@H](c3ccccc3)[C@H](c3ccccc3)OC(=O)[C@H]1[C@@H]2C(=O)N1CCN(c2ncccn2)CC1`, the AC35 is 5.04 µM.

Consider `C[C@@H]1CN([C@H](C)CO)C(=O)CCCn2nncc2CO[C@H]1CN(C)Cc1ccc(Oc2ccccc2)cc1`, for which the AC35 is 21.1 µM.

Regarding `Nc1ccn([C@@H]2O[C@H](CO)[C@@H](O)C2O)c(=O)n1` (some centres undefined), the AC35 was 0.448 µM.

`O=C(/C=C/c1cc(Br)ccc1O)c1ccco1`: the AC35 is 12.3 µM.

For the molecule `CCC1=Nc2cc(C(=O)NCC3CCCO3)ccc2Sc2ccc(Br)cc21` (centres undefined), the AC35 is 4.39 µM.

On to `Oc1c(C(c2ccc(Cl)cc2)N2CCCC2)cc(Cl)c2cccnc12` (centres undefined), for which the AC35 was 1.47 µM.

On to `Cc1nc(N)nc(N)c1/C=C/C(C)(C)c1ccc(Cl)cc1`, for which the AC35 was below 0.011 µM.

On to `COc1ccc(C=C2CCc3ccccc3C2=O)cc1`, for which the AC35 was 18.9 µM.

Consider `CC(=O)Oc1ccc(-c2ccc(C(=O)Nc3cccc(S(=O)(=O)N4CCOCC4)c3)cc2)cc1`, for which the AC35 was 15.3 µM.

Consider `COc1ccc(N=C2C(=O)Nc3ccc(C)c(Br)c32)cc1`, for which the AC35 was 17 µM.

For `O=C(CCCN1C(=O)/C(=C/c2ccccc2Cl)SC1=S)NNC(=O)c1ccc(Cl)cc1`, the AC35 was 23.9 µM.

Turning to `C[C@H]1CN([C@@H](C)CO)C(=O)Cc2cc(NC(=O)CCCCCC(=O)Nc3ccccc3N)ccc2O[C@H]1CN(C)Cc1ccc(C(F)(F)F)cc1`, the AC35 is 12.5 µM.

On to `O=c1[nH]c(=O)n([C@H]2C[C@H](O)[C@@H](CO)O2)cc1C(F)(F)F`, for which the AC35 was 4.17 µM.

Take `COc1cccc(O)c1CN1CCC(C(=O)Nc2ccc(-c3cccc(C)c3)cc2)CC1`: the AC35 was 11 µM.

`COc1cccc(OC)c1C(=O)Nc1cc(C)nn1-c1nc2ccccc2[nH]1`: the AC35 was 13.2 µM.

`COC(=O)C[C@H]1CC[C@H]2[C@H](COc3ccc(NC(=O)Nc4cccc(Cl)c4)cc3C(=O)N2C)O1`: the AC35 was 13.6 µM.

With `CN1C/C(=C/c2ccsc2)C(=O)/C(=C/c2ccsc2)C1`, the AC35 is 8.67 µM.

For `CC12CCC(O)CC1CCC1C2CCC2(C)C(C3=CC(=O)OC3)CCC12O` (centres undefined), the AC35 is 0.385 µM.

With `O=C(N/N=C/c1cnc(N2CCCCC2)s1)c1ccc(C(F)(F)F)cc1`, the AC35 is 13.8 µM.

In the case of `CCCCNC(=O)C(c1ccc(OCC(=O)OC)c(C(=O)OC)c1)N(CCOC)C(=O)CCCCCN1C(=O)NC(c2ccc(-c3ccccc3)cc2)C(C(=O)OCc2ccccc2)=C1C` (centres undefined), the AC35 was 7.63 µM.

In the case of `CN1C(=O)c2cc(NC(=O)c3ccc(Cl)cc3)ccc2OC[C@@H]2O[C@@H](CC(=O)NCc3cccc(F)c3)CC[C@H]21`, the AC35 was 5.42 µM.

On to `O=C(c1cccc(S(=O)(=O)NCc2ccccc2)c1)N1CCN(c2ccccc2)CC1`, for which the AC35 is 20.8 µM.

As to `O=c1ccc2[n+]([O-])c3ccc(O)cc3oc-2c1`, the AC35 was 8.92 µM.

In the case of `CCN(CC)c1ccc(C2NC(=O)c3ccccc3N2)cc1` (centres undefined), the AC35 was 21.6 µM.

For `COc1cc(-c2noc(C)c2C#Cc2nccn2C)cc(OC)c1OC`, the AC35 is 15.9 µM.

As to `Nc1ccc(Cn2ccc3c4c(N)nc(N)nc4ccc32)cc1`, the AC35 is 0.0589 µM.

For the molecule `Nc1nc(N)c2cc(Sc3ccc4ccccc4c3)ccc2n1`, the AC35 is 3.35 µM.

Consider `CCCCc1c(-c2ccccc2OC)ncn1Cc1ccc(C(C)(C)C)cc1`, for which the AC35 is 11.8 µM.

As to `O=C(O)c1ccc(N/N=C/c2ccc3c(c2)OCO3)cc1`, the AC35 is 16.5 µM.

In the case of `C=C1C(=O)O[C@@H]2[C@H]1[C@@H](OC(=O)/C(C)=C/C)C/C(C)=C\C(=O)/C=C(\C)[C@@H]2O`, the AC35 was 3.23 µM.

For `Cc1cc(C(=O)Nc2ccc3c(c2)C(=O)N(C)[C@@H]2CC[C@H](CC(=O)N[C@H](C)c4ccccc4)O[C@H]2CO3)no1`, the AC35 is 12.9 µM.
